Conditions: Liquid, Vibrating tube method

CC(C)CO [2-methyl-1-propanol]
Conditions | mass density [kg/m3]
343.15 K, 50016 kPa | 802.401
343.15 K, 52079 kPa | 803.724
343.15 K, 54997 kPa | 805.581
343.15 K, 57987 kPa | 807.46
343.15 K, 62074 kPa | 809.959
343.15 K, 65051 kPa | 811.734
343.15 K, 66170 kPa | 812.401
343.16 K, 60015 kPa | 808.691
348.15 K, 94 kPa | 756.672
348.15 K, 293.8 kPa | 756.914
348.15 K, 481.9 kPa | 757.128
348.15 K, 763.5 kPa | 757.435
348.15 K, 1011 kPa | 757.701
348.15 K, 1981.1 kPa | 758.826
348.15 K, 3073.2 kPa | 759.88
348.15 K, 5089.9 kPa | 762.131
348.15 K, 7034.6 kPa | 764.092
348.15 K, 9052.5 kPa | 766.106
348.15 K, 9991.3 kPa | 767.026
348.15 K, 15042 kPa | 771.822
348.15 K, 17922 kPa | 774.408
348.15 K, 19893 kPa | 776.137
348.15 K, 22033 kPa | 777.985
348.15 K, 22381 kPa | 778.265
348.15 K, 28023 kPa | 782.927
348.15 K, 29922 kPa | 784.471
348.15 K, 33999 kPa | 787.493
348.15 K, 34980 kPa | 788.228
348.15 K, 37995 kPa | 790.467
348.15 K, 40072 kPa | 791.973
348.15 K, 41992 kPa | 793.388
348.15 K, 45082 kPa | 795.525
348.15 K, 48031 kPa | 797.589
348.15 K, 52067 kPa | 800.261
348.15 K, 55099 kPa | 802.242
348.15 K, 60084 kPa | 805.42
348.15 K, 62302 kPa | 806.758
348.15 K, 65219 kPa | 808.569
348.15 K, 66250 kPa | 809.201
348.16 K, 12060 kPa | 769.03
348.16 K, 25066 kPa | 780.513
348.16 K, 32007 kPa | 786.046
348.16 K, 32760 kPa | 786.619
348.16 K, 32941 kPa | 786.66
348.16 K, 50014 kPa | 798.878
348.16 K, 58146 kPa | 804.186
353.15 K, 98.1 kPa | 752.221
353.15 K, 305.8 kPa | 752.433
353.15 K, 384 kPa | 752.511
353.15 K, 558.5 kPa | 752.696
353.15 K, 929.4 kPa | 753.125
353.15 K, 1073.7 kPa | 753.289
353.15 K, 2082.7 kPa | 754.432
353.15 K, 3025.9 kPa | 755.465
353.15 K, 5017.9 kPa | 757.656
353.15 K, 6957.8 kPa | 759.69
353.15 K, 8976.6 kPa | 761.781
353.15 K, 9990.3 kPa | 762.812
353.15 K, 11934 kPa | 764.803
353.15 K, 14917 kPa | 767.603
353.15 K, 18020 kPa | 770.471
353.15 K, 19983 kPa | 772.259
353.15 K, 22060 kPa | 773.965
353.15 K, 24899 kPa | 776.429
353.15 K, 27951 kPa | 778.961
353.15 K, 29947 kPa | 780.584
353.15 K, 31942 kPa | 782.185
353.15 K, 32982 kPa | 782.978
353.15 K, 33037 kPa | 783.002
353.15 K, 33907 kPa | 783.604
353.15 K, 35053 kPa | 784.493
353.15 K, 37939 kPa | 786.664
353.15 K, 39830 kPa | 788.076
353.15 K, 41863 kPa | 789.556
353.15 K, 44753 kPa | 791.642
353.15 K, 47880 kPa | 793.816
353.15 K, 49780 kPa | 795.14
353.15 K, 51876 kPa | 796.535
353.15 K, 55023 kPa | 798.765
353.15 K, 55678 kPa | 799.178
353.15 K, 57869 kPa | 800.594
353.15 K, 59971 kPa | 801.962
353.15 K, 62015 kPa | 803.245
353.15 K, 64989 kPa | 805.09
353.15 K, 66151 kPa | 805.82
358.15 K, 91.6 kPa | 747.694
358.15 K, 304.9 kPa | 747.895
358.15 K, 517.3 kPa | 748.147
358.15 K, 850.1 kPa | 748.568
358.15 K, 1095.5 kPa | 748.835
358.15 K, 2101.6 kPa | 750.029
358.15 K, 3210.6 kPa | 751.303
358.15 K, 5324.2 kPa | 753.465
358.15 K, 7190.1 kPa | 755.483
358.15 K, 9074.3 kPa | 757.505
358.15 K, 10165 kPa | 758.644
358.15 K, 12208 kPa | 760.738
358.15 K, 13986 kPa | 762.552
358.15 K, 15000 kPa | 763.577
358.15 K, 17866 kPa | 766.293
358.15 K, 20104 kPa | 768.379
358.15 K, 27962 kPa | 775.177
358.15 K, 30131 kPa | 776.699
358.15 K, 32076 kPa | 778.299
358.15 K, 32938 kPa | 778.904
358.15 K, 33039 kPa | 779.08
358.15 K, 33914 kPa | 779.672
358.15 K, 34978 kPa | 780.53
358.15 K, 37986 kPa | 782.876
358.15 K, 39996 kPa | 784.402
358.15 K, 42079 kPa | 785.976
358.15 K, 45119 kPa | 788.207
358.15 K, 48100 kPa | 790.343
358.15 K, 49987 kPa | 791.672
358.15 K, 52101 kPa | 793.112
358.15 K, 54983 kPa | 795.084
358.15 K, 58017 kPa | 797.106
358.15 K, 60055 kPa | 798.438
358.15 K, 62083 kPa | 799.766
358.15 K, 65016 kPa | 801.626
358.15 K, 66339 kPa | 802.467
358.16 K, 22005 kPa | 770.073
358.16 K, 25079 kPa | 772.781
363.15 K, 53.2 kPa | 742.307
363.15 K, 125.5 kPa | 742.405
363.15 K, 320.3 kPa | 742.647
363.15 K, 562.5 kPa | 742.935
363.15 K, 892.5 kPa | 743.339
363.15 K, 1001.3 kPa | 743.446
363.15 K, 1911.6 kPa | 744.576
363.15 K, 2977.3 kPa | 745.832
363.15 K, 4957.5 kPa | 748.169
363.15 K, 6937.4 kPa | 750.436
363.15 K, 8892.9 kPa | 752.564
363.15 K, 10033 kPa | 753.801
363.15 K, 11914 kPa | 755.769
363.15 K, 14908 kPa | 758.826
363.15 K, 17925 kPa | 761.773
363.15 K, 19995 kPa | 763.754
363.15 K, 21953 kPa | 765.578
363.15 K, 24962 kPa | 768.273
363.15 K, 27932 kPa | 770.858
363.15 K, 30163 kPa | 772.879
363.15 K, 32029 kPa | 774.439
363.15 K, 33151 kPa | 775.369
363.15 K, 33315 kPa | 775.421
363.15 K, 34086 kPa | 776.049
363.15 K, 35189 kPa | 776.934
363.15 K, 37932 kPa | 779.076
363.15 K, 40070 kPa | 780.754
363.15 K, 41883 kPa | 782.107
363.15 K, 44755 kPa | 784.308
363.15 K, 48054 kPa | 786.713
363.15 K, 50037 kPa | 788.134
363.15 K, 51977 kPa | 789.492
363.15 K, 55048 kPa | 791.627
363.15 K, 57990 kPa | 793.615
363.15 K, 60071 kPa | 794.972
363.15 K, 62073 kPa | 796.302
363.15 K, 64996 kPa | 798.178
363.15 K, 66050 kPa | 798.847

From the NIST ThermoML archive (doi:10.1021/je5010214)
